# ChEMBL document CHEMBL1152560, “Substituted 2-arylbenzothiazoles as kinase inhibitors: hit-to-lead optimization” (Bioorg Med Chem, 2009)
# Legend:
# [1] = molecular target: Fibroblast growth factor receptor 4 (Homo sapiens) (UniProt P22455); test: Residual activity of FGFR4 at 0.1 uM by microplate scintillation counting
# [2] = molecular target: Serine/threonine-protein kinase WNK2 (Homo sapiens) (UniProt Q9Y3S1); test: Residual activity of WNK2 at 10 uM by microplate scintillation counting
# [3] = molecular target: T1, cAMP-dependent protein kinase catalytic subunit PRKX (Homo sapiens) (UniProt P51817); test: Residual activity of PRKX at 1 uM by microplate scintillation counting
# T1 sequence (whole entry): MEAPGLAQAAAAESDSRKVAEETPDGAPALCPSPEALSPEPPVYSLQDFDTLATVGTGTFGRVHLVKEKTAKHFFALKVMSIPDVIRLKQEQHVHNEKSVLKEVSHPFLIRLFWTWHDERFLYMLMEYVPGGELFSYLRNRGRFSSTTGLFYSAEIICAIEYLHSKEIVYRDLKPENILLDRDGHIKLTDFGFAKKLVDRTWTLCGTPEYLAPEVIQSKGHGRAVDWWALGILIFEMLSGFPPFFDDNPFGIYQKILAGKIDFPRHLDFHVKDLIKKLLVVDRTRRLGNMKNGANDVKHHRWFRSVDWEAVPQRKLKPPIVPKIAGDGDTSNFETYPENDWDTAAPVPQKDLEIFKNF
# [4] = molecular target: T2, Tyrosine-protein kinase ITK/TSK (Homo sapiens) (UniProt Q08881); test: Residual activity of ITK at 1 uM by microplate scintillation counting
# T2 sequence (whole entry): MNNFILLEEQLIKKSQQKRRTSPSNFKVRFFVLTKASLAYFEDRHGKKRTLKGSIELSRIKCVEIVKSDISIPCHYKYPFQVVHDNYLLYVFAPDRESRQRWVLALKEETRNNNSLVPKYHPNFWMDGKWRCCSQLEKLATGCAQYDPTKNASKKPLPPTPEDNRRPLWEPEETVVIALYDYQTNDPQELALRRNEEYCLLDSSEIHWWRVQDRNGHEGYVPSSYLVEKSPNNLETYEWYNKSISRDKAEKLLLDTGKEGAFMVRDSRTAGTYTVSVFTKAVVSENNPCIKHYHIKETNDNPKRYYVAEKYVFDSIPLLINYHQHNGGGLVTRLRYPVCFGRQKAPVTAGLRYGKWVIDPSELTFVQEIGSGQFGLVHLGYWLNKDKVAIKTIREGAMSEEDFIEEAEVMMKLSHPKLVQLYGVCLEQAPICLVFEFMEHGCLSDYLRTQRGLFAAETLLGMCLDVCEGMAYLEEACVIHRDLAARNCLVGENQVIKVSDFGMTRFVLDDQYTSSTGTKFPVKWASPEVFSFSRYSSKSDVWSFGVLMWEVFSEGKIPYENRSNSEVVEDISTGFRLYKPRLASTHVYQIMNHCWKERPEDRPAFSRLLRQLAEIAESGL
# [5] = system: Serine/threonine-protein kinase B-raf (Homo sapiens), P15056 [V600E]; test: Residual activity of B-RAF V600E mutant at 0.1 uM by microplate scintillation counting
# Chain of Serine/threonine-protein kinase B-raf (Homo sapiens), P15056 [V600E] (P15056 whole entry V600E): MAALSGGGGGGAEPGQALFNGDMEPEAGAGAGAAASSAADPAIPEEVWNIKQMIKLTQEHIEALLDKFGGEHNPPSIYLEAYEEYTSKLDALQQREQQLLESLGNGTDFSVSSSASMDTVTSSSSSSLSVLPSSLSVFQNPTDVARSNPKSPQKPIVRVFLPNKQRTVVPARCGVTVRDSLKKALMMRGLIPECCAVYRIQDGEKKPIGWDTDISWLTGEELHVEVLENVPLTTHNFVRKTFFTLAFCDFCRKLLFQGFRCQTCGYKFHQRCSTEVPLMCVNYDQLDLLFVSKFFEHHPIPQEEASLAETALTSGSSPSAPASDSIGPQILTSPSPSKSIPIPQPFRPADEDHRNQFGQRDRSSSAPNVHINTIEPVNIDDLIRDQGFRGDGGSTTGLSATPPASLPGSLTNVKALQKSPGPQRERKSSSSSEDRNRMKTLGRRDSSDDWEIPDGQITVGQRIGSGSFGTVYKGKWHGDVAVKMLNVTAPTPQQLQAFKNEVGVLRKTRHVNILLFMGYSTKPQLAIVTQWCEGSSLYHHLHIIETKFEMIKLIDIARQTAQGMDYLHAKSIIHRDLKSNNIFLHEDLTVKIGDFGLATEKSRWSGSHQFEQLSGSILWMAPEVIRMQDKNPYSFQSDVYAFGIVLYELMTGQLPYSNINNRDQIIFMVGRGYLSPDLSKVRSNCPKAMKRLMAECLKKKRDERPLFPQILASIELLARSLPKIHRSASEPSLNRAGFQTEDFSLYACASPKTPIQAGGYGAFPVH
# [6] = molecular target: T3, Mitogen-activated protein kinase 12 (Homo sapiens) (UniProt P53778); test: Residual activity of p38-gamma at 1 uM by microplate scintillation counting
# T3 sequence (whole entry): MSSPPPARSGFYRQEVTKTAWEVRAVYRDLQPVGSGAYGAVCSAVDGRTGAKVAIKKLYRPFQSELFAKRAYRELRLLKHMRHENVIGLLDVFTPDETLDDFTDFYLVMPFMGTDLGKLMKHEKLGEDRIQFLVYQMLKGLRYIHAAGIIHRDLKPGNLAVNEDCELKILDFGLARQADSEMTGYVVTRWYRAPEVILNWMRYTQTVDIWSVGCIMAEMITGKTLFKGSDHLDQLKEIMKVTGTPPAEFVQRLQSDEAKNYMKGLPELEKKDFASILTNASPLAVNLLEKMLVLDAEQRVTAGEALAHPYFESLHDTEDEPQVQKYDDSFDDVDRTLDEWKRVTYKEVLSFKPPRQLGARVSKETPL
# [7] = molecular target: Serine/threonine-protein kinase PAK 3 (Homo sapiens) (UniProt O75914); test: Residual activity of PAK3 at 0.1 uM by microplate scintillation counting
# Chain of Serine/threonine-protein kinase PAK 3 (Homo sapiens) (O75914 whole entry, looked up): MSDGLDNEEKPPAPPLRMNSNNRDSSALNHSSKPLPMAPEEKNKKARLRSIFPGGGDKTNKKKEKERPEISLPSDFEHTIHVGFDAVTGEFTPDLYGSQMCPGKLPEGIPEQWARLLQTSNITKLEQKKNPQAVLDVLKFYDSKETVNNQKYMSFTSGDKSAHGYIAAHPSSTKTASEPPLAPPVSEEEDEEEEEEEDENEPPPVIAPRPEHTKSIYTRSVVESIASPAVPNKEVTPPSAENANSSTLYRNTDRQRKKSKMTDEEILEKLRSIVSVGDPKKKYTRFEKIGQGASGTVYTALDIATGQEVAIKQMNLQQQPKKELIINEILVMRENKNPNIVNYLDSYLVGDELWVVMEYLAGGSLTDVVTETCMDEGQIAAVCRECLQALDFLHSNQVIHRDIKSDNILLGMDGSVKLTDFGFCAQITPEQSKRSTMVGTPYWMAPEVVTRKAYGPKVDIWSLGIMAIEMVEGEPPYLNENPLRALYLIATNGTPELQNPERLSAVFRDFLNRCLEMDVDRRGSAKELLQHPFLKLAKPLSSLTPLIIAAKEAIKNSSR
# [8] = molecular target: Casein kinase II subunit alpha' (Homo sapiens) (UniProt P19784); test: Residual activity of CK2alpha2 at 0.1 uM by microplate scintillation counting
# [9] = molecular target: Serine/threonine-protein kinase PLK1 (Homo sapiens) (UniProt P53350); test: Residual activity of PLK1 at 10 uM by microplate scintillation counting
# Chain of Serine/threonine-protein kinase PLK1 (Homo sapiens) (P53350 whole entry): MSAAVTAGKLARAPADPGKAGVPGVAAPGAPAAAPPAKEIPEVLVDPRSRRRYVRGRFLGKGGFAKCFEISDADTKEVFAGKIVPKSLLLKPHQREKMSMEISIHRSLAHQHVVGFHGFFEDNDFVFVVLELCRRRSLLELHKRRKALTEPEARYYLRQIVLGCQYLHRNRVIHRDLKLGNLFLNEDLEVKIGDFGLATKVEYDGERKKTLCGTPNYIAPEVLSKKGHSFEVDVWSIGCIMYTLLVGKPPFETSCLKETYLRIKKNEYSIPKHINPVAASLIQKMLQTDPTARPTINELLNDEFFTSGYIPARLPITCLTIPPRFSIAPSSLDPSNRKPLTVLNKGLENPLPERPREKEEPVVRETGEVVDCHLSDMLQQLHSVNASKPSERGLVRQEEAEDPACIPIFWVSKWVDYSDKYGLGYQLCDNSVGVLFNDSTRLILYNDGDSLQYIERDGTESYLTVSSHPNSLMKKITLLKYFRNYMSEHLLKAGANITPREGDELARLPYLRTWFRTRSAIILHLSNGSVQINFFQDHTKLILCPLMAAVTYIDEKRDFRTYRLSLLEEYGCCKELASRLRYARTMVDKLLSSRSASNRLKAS
# [10] = molecular target: T4, NUAK family SNF1-like kinase 2 (Homo sapiens) (UniProt Q9H093); test: Residual activity of SNARK at 1 uM by microplate scintillation counting
# T4 sequence (whole entry): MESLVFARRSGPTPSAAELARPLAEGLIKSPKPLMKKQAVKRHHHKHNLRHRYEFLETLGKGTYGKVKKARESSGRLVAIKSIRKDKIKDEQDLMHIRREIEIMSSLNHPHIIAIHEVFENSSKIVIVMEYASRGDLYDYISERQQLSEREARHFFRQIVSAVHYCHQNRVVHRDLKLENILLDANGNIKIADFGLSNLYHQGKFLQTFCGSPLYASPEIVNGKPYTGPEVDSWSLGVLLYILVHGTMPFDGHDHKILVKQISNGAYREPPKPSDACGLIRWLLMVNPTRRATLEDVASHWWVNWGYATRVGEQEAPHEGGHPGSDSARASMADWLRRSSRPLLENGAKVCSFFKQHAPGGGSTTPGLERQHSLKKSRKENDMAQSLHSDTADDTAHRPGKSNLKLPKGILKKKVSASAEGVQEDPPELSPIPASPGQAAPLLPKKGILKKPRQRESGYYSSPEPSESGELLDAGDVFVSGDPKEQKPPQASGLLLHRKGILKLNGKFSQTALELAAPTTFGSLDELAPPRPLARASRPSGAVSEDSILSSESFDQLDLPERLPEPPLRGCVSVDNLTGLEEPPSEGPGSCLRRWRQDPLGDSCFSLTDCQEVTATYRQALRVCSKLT
# [11] = molecular target: T5, Serine/threonine-protein kinase Nek2 (Homo sapiens) (UniProt P51955); test: Residual activity of NEK2 at 0.1 uM by microplate scintillation counting
# T5 sequence (whole entry): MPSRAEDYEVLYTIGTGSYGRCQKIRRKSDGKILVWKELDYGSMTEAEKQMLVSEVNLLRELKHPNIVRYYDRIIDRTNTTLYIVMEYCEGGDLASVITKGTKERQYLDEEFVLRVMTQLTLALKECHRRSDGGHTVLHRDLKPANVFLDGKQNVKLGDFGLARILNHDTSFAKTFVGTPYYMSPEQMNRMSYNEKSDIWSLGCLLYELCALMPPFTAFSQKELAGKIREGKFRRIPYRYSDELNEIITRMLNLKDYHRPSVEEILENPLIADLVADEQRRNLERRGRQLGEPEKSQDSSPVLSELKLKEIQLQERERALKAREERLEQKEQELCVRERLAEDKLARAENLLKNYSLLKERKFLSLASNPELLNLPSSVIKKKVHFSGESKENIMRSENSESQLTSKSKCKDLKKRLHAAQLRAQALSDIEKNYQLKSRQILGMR
# Chain of Serine/threonine-protein kinase WNK2 (Homo sapiens) (Q9Y3S1 whole entry): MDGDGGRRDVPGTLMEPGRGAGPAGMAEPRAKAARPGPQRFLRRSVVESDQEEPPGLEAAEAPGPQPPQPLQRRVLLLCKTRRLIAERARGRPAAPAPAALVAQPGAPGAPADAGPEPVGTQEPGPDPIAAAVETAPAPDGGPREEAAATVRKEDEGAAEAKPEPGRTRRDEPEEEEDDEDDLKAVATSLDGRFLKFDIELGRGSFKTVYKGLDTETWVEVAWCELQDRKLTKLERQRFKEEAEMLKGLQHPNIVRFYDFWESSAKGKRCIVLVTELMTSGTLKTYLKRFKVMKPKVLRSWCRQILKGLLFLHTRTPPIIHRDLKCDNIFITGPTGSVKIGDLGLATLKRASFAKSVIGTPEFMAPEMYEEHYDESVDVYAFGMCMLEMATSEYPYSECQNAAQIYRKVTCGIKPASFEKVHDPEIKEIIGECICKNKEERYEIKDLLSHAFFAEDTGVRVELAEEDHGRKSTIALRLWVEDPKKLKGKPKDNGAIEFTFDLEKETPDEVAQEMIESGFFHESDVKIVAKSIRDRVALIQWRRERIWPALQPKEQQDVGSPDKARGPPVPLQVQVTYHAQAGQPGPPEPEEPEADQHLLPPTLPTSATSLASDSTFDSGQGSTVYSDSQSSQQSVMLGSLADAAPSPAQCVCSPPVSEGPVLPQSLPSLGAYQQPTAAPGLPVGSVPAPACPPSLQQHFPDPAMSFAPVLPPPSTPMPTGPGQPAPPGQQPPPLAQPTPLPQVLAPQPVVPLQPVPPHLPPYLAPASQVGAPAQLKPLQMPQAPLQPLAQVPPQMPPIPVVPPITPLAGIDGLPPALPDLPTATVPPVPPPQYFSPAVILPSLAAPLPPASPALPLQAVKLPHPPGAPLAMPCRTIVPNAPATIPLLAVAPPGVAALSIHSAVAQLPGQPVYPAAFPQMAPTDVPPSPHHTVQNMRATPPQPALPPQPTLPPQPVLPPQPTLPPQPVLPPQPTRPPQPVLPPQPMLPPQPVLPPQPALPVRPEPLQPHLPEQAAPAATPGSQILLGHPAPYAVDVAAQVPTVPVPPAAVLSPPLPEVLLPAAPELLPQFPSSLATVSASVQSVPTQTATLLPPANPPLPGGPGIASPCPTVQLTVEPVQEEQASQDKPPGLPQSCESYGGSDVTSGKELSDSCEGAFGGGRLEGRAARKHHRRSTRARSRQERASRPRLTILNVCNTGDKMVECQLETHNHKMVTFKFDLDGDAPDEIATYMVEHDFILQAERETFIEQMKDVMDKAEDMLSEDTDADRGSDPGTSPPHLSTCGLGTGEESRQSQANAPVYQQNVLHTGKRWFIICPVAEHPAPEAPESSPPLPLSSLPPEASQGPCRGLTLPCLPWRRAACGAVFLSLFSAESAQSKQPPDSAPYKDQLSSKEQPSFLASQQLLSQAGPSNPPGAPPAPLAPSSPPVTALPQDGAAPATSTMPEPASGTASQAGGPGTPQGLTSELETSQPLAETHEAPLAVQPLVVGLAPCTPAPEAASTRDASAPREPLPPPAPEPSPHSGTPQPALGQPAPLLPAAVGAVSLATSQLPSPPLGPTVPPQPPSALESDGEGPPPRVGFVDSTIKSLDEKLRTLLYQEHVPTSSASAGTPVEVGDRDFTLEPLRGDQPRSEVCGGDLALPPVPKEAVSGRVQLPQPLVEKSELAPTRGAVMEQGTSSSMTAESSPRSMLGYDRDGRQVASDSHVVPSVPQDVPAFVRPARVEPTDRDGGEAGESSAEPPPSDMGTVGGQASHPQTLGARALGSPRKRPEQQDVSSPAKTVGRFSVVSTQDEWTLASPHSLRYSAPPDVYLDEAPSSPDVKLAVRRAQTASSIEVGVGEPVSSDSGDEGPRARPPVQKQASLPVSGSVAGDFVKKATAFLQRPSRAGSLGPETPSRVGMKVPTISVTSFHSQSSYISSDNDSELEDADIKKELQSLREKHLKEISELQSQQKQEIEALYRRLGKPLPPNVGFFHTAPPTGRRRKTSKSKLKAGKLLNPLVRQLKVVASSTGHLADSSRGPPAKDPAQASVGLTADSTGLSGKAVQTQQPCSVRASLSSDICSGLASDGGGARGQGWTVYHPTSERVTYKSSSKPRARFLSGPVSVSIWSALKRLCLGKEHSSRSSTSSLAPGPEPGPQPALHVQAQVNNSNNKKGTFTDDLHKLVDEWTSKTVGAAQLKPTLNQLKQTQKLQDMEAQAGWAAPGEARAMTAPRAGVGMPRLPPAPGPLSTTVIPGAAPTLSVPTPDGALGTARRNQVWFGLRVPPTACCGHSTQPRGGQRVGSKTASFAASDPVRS
# Chain of Fibroblast growth factor receptor 4 (Homo sapiens) (P22455 22-802 limits assumed): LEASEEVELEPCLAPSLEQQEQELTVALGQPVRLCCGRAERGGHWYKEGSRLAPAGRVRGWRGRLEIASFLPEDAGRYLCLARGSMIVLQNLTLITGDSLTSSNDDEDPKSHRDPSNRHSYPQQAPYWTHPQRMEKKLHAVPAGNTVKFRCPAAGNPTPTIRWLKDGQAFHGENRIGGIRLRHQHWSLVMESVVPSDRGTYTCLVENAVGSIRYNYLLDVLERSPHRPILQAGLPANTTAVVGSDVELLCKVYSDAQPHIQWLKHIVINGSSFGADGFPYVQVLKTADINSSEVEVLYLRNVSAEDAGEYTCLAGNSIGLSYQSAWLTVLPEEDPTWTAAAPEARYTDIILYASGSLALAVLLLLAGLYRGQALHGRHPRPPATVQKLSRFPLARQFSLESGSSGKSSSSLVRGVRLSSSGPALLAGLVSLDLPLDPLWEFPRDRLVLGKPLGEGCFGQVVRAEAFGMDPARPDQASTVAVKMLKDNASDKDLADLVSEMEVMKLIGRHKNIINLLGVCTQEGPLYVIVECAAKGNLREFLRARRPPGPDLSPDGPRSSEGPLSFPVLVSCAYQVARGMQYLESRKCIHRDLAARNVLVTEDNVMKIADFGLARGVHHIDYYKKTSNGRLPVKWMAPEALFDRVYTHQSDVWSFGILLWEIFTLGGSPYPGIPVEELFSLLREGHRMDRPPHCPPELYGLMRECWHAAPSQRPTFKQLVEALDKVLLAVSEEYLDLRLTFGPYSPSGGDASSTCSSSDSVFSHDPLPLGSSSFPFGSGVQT
SMILES,residual activity [1] [%],residual activity [2] [%],residual activity [3] [%],residual activity [4] [%],residual activity [5] [%],residual activity [6] [%],residual activity [7] [%],residual activity [8] [%],residual activity [9] [%],residual activity [10] [%],residual activity [11] [%]
COc1cc2c(Oc3ccc(-c4nc5ccccc5s4)cc3F)ncnc2cc1OCCCN1CCN(C)CC1,109,27,92,97,96,125,97,88,100,91,90
COc1cc2c(Oc3ccc(-c4nc5ccccc5s4)cc3)ncnc2cc1OCCCN1CCCC1,100,6,86,95,92,112,95,91,123,88,94
COc1cc2c(Oc3ccc(-c4nc5ccccc5s4)cc3)ncnc2cc1OCCCN1CCN(C)CC1,104,12,89,91,91,105,95,98,134,87,95
